# Results: publication PMC11406361, “Several orphan solute carriers functionally identified as organic cation transporters: Substrates specificity compared with known cation transporters” (The Journal of Biological Chemistry, 2024)
# Legend:
# SLC35G3 [1] = molecular target: T1, SLC35G3 (Homo sapiens, UniProt Q8N808); test: Uptake ratio screen, SLC35G3-overexpressing HEK293 over empty vector cells; assay type: cell-based; design: by amplifying the entire gene-of-interest within the HEK293 genome via a long-range PCR; settings: 2.5 μM substrate, 2 min, HEK293
# T1 sequence (Q8N808 whole entry): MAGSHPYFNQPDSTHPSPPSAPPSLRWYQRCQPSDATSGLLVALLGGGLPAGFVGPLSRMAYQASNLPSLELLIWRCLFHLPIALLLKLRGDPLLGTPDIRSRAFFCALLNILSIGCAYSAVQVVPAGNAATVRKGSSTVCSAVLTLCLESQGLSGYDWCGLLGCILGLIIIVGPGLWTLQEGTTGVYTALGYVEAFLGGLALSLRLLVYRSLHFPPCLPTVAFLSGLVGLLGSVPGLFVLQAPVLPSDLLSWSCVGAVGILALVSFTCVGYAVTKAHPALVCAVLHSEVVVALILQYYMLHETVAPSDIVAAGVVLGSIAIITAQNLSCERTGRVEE
# SLC38A10 [2] = molecular target: T2, SLC38A10 (Homo sapiens, UniProt Q9HBR0)
# T2 sequence (Q9HBR0 whole entry): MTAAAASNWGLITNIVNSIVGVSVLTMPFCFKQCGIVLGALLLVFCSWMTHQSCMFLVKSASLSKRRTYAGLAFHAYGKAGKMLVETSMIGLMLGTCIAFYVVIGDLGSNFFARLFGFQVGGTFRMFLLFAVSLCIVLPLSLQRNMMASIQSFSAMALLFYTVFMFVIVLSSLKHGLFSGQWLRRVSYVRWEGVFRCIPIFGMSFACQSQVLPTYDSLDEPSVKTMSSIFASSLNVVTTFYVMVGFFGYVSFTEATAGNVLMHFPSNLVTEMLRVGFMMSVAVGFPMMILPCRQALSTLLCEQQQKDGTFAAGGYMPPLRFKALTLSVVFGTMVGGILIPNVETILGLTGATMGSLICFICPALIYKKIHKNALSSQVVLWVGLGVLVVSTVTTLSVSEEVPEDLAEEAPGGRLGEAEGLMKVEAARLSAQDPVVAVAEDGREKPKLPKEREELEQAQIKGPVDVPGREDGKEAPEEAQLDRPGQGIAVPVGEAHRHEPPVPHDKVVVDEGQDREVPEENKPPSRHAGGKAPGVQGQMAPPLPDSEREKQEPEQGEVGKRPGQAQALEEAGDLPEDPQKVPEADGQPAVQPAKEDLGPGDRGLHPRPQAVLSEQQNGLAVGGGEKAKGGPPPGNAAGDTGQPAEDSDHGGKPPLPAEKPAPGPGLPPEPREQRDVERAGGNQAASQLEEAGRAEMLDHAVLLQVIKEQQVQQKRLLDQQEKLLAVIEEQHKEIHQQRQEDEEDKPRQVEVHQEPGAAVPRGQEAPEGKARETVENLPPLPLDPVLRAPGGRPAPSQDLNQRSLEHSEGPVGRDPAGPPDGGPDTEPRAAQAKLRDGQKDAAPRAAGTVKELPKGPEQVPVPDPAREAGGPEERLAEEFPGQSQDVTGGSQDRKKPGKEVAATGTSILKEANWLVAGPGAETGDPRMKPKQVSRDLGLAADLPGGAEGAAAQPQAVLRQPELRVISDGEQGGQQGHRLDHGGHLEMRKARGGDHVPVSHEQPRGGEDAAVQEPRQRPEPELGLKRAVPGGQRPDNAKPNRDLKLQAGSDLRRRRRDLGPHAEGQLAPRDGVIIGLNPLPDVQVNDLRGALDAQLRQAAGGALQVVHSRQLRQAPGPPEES
# SLC35G3 [3] = molecular target: T1, SLC35G3
# SLC35F2 = molecular target: T3, SLC35F2 (Homo sapiens, UniProt Q8IXU6)
# T3 sequence (Q8IXU6 1-374): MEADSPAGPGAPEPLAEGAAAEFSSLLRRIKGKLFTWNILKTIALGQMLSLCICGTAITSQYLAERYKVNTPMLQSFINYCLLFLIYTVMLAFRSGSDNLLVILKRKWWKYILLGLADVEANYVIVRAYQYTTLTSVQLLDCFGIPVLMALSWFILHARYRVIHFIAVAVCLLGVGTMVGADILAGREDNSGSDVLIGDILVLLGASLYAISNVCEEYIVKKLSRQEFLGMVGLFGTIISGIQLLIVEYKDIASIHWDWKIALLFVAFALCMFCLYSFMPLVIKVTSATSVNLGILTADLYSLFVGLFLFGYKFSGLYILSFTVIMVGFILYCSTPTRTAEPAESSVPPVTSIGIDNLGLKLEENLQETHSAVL
# SLC22A15 = molecular target: T4, SLC22A15 (Homo sapiens, UniProt Q8IZD6); test: Uptake ratio screen, SLC22A15-overexpressing HEK293 over empty vector cells; assay type: cell-based; settings: 2.5 μM (nicotine 10 μM), 2 min
# T4 construct: by amplifying the entire gene-of-interest within the HEK293 genome via a long-range PCR
# T4 sequence (Q8IZD6 whole entry): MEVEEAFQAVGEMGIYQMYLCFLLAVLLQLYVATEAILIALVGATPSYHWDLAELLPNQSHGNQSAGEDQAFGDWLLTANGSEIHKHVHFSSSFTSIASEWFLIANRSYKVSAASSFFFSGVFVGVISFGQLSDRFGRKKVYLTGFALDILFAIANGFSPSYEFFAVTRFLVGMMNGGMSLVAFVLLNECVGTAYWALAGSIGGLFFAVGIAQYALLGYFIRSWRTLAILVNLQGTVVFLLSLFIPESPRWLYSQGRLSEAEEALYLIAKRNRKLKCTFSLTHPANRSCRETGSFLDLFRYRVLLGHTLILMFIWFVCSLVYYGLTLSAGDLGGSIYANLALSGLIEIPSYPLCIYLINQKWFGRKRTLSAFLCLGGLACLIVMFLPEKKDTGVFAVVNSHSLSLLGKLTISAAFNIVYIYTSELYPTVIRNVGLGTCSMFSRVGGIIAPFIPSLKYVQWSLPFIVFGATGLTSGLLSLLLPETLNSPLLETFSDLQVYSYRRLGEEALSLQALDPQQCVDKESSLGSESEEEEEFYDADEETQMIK
# Protocol: (§1) Typically discussed substrates of the proton organic-cation antiporter ([14]) are highlighted in dark green in Figure 1.
# (§2) In preparation for transport experiments, 24-well plates were pre-coated with poly-D-lysine (Sigma-Aldrich) and 300,000 cells were plated per well and incubated for 48 h. Firstly, the 24-well plate was placed on a heating plate at 37 °C, and the cells were washed with 37 °C HBSS^+ buffer (Hank’s balanced salt solution supplemented with 10 mM Hepes and adjusted to pH 7.4; Thermo Fisher Scientific). The substance-of-interest, which was diluted in 37 °C HBSS^+ to a desired concentration, was added to the cells for exactly 2 min. […] The uptake was stopped with ice-cold HBSS^+, and the 24-well plate was removed from the heating plate. The cells were washed twice with the cold HBSS^+ before they were lysed for 15 min with 80% (v/v) acetonitrile containing the respective internal standard for mass spectrometry. For variations in seeded cell numbers between the cell lines, several wells were lysed in RIPA buffer and used for total protein quantification using a bicinchoninic assay ([74]) and bovine serum albumin as calibration.
# (§3) The intracellular drug concentrations after transport experiments were analyzed by high-performance liquid chromatography coupled to tandem mass spectrometry analysis. The HPLC consisted of a Shimadzu Nexera HPLC System with a SIL-30AC autosampler, a LC-30AD pump, a CTO-20AC column oven, and a CBM-20A controller (Shimadzu). The reverse-phase chromatography of compounds was accomplished with a Brownlee SPP RP-Amide column with 4.6 × 100 mm inner dimensions, a particle size of 2.7 μm, and a preceding Phenomenex C-18 guard column. The mobile phase was composed of an organic additive with acetonitrile:methanol 6:1 (v/v) in total concentrations between 3% and 50% (v/v) and 0.1% (v/v) formic acid in the aqueous component of the eluent. During separation, the column oven was held at 40 °C and the mobile phase was maintained at a flow rate of 300 or 400 μl/min. After separation, the detection of substances was performed with an API 4000 tandem mass spectrometer (AB SCIEX, https://sciex.com/support/software-support/software-downloads), followed by quantification of results with the Analyst software (AB SCIEX, version 1.6.2). The composition of chromatographic conditions, as well as detailed mass spectrometric detection parameters, are listed in Table S5.
# (§4) Transport-mediated net uptake was determined as fold-increase of transporter-overexpressing cells over empty vector–transfected control cells.
# SLC35F3 = SLC35F3 (Homo sapiens, UniProt Q8IY50); settings: 2.5 μM, 2 min, HEK293
# SLC35F3, sequence (Q8IY50 whole entry): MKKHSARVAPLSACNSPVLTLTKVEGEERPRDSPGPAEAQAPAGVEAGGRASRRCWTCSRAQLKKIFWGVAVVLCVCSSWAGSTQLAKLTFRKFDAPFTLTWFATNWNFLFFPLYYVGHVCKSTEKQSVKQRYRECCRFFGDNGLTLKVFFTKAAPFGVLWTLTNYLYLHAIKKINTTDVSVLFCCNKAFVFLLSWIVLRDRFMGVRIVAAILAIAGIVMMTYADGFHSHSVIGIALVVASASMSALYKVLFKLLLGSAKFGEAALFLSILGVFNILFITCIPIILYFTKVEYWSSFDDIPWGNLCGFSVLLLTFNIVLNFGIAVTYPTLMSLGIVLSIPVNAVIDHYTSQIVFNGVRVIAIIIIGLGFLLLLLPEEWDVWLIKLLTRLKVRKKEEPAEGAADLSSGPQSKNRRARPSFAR
# Protocol: as §1, §2, §3, §4
# SLC35F4 = molecular target: T5, SLC35F4 (Homo sapiens, UniProt A4IF30); test: Uptake ratio screen, SLC35F4-overexpressing HEK293 over empty vector cells; assay type: cell-based; design: by amplifying the entire gene-of-interest within the HEK293 genome via a long-range PCR; settings: 2.5 μM, 2 min
# T5 sequence (A4IF30 1-521): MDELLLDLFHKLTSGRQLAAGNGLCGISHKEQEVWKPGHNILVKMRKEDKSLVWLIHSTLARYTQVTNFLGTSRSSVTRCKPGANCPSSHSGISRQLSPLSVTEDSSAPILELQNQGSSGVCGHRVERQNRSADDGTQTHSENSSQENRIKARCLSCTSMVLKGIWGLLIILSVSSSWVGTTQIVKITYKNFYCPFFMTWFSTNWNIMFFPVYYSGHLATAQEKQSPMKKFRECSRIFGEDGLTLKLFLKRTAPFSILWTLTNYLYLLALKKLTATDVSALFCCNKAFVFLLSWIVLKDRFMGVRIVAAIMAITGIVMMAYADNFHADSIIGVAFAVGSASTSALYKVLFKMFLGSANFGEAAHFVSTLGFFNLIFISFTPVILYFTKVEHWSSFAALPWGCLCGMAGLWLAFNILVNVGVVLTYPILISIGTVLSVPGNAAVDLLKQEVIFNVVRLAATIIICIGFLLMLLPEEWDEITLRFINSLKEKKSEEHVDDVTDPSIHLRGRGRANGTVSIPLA
# Protocol: as §1, §2, §3, §4
# SLC35E2A [4] = molecular target: T6, SLC35E2A (Homo sapiens, UniProt P0CK97)
# T6 sequence (P0CK97 whole entry): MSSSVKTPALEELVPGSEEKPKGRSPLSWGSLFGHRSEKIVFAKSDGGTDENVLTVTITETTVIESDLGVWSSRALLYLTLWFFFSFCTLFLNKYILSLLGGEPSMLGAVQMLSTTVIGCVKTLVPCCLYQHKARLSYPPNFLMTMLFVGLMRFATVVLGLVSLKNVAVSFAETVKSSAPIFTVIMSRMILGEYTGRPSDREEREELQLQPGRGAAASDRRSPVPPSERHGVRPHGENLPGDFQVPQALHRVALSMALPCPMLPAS
# SLC35E2A [5] = molecular target: T6, SLC35E2A; test: Uptake ratio screen, SLC35E2A-overexpressing HEK293 over empty vector cells; assay type: cell-based; design: by amplifying the entire gene-of-interest within the HEK293 genome via a long-range PCR; settings: 2.5 μM, 2 min
# Protocol: as §1, §2
# (§5) The intracellular drug concentrations after transport experiments were analyzed by high-performance liquid chromatography coupled to tandem mass spectrometry analysis. The HPLC consisted of a Shimadzu Nexera HPLC System with a SIL-30AC autosampler, a LC-30AD pump, a CTO-20AC column oven, and a CBM-20A controller (Shimadzu). The reverse-phase chromatography of compounds was accomplished with a Brownlee SPP RP-Amide column with 4.6 × 100 mm inner dimensions, a particle size of 2.7 μm, and a preceding Phenomenex C-18 guard column. […] After separation, the detection of substances was performed with an API 4000 tandem mass spectrometer (AB SCIEX, https://sciex.com/support/software-support/software-downloads), followed by quantification of results with the Analyst software (AB SCIEX, version 1.6.2). […]
# as §4
# OCT1 = OCT1 (Homo sapiens, UniProt O15245); settings: 2.5 μM, 2 min, HEK293
# OCT1, sequence (O15245 whole entry): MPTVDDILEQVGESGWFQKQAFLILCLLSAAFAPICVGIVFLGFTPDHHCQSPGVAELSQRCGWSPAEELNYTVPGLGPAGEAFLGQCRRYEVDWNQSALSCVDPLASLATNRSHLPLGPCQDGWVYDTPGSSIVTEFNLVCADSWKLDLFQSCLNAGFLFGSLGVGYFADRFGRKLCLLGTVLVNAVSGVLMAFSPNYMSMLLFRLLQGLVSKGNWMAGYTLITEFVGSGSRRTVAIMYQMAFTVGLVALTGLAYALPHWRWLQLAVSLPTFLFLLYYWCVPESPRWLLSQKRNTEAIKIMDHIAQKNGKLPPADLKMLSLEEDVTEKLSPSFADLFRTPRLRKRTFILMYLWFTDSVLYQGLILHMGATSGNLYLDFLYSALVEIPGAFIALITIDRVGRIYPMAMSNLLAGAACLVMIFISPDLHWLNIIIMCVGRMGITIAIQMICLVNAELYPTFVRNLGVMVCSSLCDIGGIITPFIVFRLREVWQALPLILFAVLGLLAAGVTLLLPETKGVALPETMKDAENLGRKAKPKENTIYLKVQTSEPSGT
# Protocol: as §1, §2, §3, §4
# OCT2 = OCT2 (Homo sapiens, UniProt O15244); settings: 2.5 μM, 2 min, HEK293
# OCT2, sequence (O15244 whole entry): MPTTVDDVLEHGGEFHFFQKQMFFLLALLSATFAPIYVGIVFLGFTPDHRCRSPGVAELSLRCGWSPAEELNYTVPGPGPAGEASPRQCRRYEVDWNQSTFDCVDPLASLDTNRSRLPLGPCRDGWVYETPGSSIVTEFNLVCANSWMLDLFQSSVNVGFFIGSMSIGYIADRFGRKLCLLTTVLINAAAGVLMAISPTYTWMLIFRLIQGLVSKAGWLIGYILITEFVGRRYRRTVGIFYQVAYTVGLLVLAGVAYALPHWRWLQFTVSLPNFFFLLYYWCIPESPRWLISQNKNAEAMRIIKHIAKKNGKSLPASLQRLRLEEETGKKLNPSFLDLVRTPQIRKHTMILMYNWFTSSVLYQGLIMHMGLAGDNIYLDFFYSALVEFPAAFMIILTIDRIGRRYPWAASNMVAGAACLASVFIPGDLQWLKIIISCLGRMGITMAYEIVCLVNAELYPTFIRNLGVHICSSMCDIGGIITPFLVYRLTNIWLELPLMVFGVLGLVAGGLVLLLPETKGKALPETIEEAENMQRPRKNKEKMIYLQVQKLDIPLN
# Protocol: as §1, §2, §3, §4
# SLC47A1 = molecular target: T7, SLC47A1 (Homo sapiens, UniProt Q96FL8); test: Uptake ratio screen, SLC47A1-overexpressing HEK293 over empty vector cells; assay type: cell-based; settings: 2.5 μM, 2 min
# T7 sequence (Q96FL8 1-570): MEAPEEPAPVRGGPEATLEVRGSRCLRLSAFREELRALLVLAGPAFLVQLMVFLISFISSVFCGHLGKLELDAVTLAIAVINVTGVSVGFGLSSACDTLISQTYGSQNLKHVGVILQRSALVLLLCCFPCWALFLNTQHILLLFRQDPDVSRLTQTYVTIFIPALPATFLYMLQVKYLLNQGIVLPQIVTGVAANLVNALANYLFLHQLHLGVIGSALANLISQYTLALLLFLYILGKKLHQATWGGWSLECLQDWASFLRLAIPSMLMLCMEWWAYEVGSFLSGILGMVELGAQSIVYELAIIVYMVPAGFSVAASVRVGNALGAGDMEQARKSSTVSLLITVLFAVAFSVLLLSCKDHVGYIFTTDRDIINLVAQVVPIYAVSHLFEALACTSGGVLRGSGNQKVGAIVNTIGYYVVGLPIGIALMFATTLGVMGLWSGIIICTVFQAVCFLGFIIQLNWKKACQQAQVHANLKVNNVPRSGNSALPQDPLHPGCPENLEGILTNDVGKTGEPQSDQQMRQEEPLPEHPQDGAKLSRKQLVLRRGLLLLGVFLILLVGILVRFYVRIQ
# Protocol: as §1, §2, §5, §4
# SLC47A2 = SLC47A2 (Homo sapiens, UniProt Q86VL8); test: Uptake ratio screen, SLC47A2-overexpressing HEK293 over empty vector cells; assay type: cell-based; settings: 2.5 μM, 2 min
# SLC47A2, sequence (Q86VL8 1-566 isoform Q86VL8-3): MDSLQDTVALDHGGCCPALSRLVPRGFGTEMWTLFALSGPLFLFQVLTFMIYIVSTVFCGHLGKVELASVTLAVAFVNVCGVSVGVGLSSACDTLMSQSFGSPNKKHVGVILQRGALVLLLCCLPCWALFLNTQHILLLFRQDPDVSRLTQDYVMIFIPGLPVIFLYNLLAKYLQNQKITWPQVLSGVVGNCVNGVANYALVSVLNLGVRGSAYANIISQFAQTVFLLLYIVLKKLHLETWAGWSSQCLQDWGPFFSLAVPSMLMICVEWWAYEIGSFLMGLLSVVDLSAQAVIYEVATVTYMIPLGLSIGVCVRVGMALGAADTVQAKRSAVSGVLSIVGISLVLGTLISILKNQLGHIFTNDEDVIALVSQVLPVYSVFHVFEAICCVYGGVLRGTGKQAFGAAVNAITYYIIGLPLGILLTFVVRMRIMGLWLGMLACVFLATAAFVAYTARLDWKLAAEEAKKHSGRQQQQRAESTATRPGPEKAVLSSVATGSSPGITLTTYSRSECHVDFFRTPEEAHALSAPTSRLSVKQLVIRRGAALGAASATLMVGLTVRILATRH
# Protocol: as §1, §2, §5, §4
# SLC38A10 [6] = molecular target: T2, SLC38A10; test: Uptake ratio screen, SLC38A10-overexpressing HEK293 over empty vector cells; assay type: cell-based; design: by amplifying the entire gene-of-interest within the HEK293 genome via a long-range PCR; settings: 2.5 μM, 2 min
# Protocol: as §1
# In preparation for transport experiments, 24-well plates were pre-coated with poly-D-lysine (Sigma-Aldrich) and 300,000 cells were plated per well and incubated for 48 h. Firstly, the 24-well plate was placed on a heating plate at 37 °C, and the cells were washed with 37 °C HBSS^+ buffer (Hank’s balanced salt solution supplemented with 10 mM Hepes and adjusted to pH 7.4; Thermo Fisher Scientific). The substance-of-interest, which was diluted in 37 °C HBSS^+ to a desired concentration, was added to the cells for exactly 2 min. […] For variations in seeded cell numbers between the cell lines, several wells were lysed in RIPA buffer and used for total protein quantification using a bicinchoninic assay ([74]) and bovine serum albumin as calibration.
# The intracellular drug concentrations after transport experiments were analyzed by high-performance liquid chromatography coupled to tandem mass spectrometry analysis. […] After separation, the detection of substances was performed with an API 4000 tandem mass spectrometer (AB SCIEX, https://sciex.com/support/software-support/software-downloads), followed by quantification of results with the Analyst software (AB SCIEX, version 1.6.2). […]
# SLC35E4 = molecular target: T8, SLC35E4 (Homo sapiens, UniProt Q6ICL7); test: Uptake ratio screen, SLC35E4-overexpressing HEK293 over empty vector cells; assay type: cell-based; design: by amplifying the entire gene-of-interest within the HEK293 genome via a long-range PCR; settings: 2.5 μM, 2 min
# T8 sequence (Q6ICL7 1-350): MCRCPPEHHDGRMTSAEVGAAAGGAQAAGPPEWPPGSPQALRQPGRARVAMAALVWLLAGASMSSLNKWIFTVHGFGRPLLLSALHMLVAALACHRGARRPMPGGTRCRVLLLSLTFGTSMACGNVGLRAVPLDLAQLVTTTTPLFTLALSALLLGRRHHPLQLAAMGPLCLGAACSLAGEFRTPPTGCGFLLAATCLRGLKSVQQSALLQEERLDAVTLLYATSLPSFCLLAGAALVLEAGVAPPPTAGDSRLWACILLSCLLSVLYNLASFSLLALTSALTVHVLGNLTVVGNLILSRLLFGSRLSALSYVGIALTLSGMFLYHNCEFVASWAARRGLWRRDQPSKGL
# Protocol: as §1, §2, §5, §4
smiles,measurement,setting,value
Clc1cccc(Cl)c1N=C1NCCN1 [Clonidine],"Uptake data for SLC35G3, mean value (fold-increase over empty vector control)",SLC35G3 [1],1.54
same,Clint (±SEM),SLC38A10 [2],2.64 (±3.0) μl × mg protein^-1 × min^-1
same,Clint (±SEM),SLC35G3 [3],4.85 (±3.17) μl × mg protein^-1 × min^-1
same,Vmax (±SEM),"SLC35F2; SLC35F2, HEK293, net uptake over empty vector cells",304 (±57.7) pmol × mg protein^-1 × min^-1
same,Clint (±SEM),SLC35F2; human,2.06 (±1.62) μl × mg protein^-1 × min^-1
same,Km,"SLC35F2; read-out: KM (±SEM), SLC35F2, HEK293, net uptake over empty vector cells",147 µM
same,Uptake by SLC22A15 (in words),SLC22A15,significantly increased the uptake
Cc1ncc(C[n+]2csc(CCO)c2C)c(N)n1 [Thiamine],"Uptake data for SLC35G3, mean value (fold-increase over empty vector control)",SLC35G3 [1],0.90
same,Uptake by SLC35F3 (in words),SLC35F3,no enhanced thiamine uptake
same,Uptake by SLC35F4 (in words),SLC35F4,no enhanced thiamine transport
c1cnc2cc3c(cc2n1)[C@@H]1CNC[C@H]3C1 [Varenicline],"Uptake data for SLC35G3, mean value (fold-increase over empty vector control)",SLC35G3 [1],1.60
same,Clint (±SEM),SLC35E2A [4],1.79 (±1.06) μl × mg protein^-1 × min^-1
same,Uptake by SLC35E2A (in words),SLC35E2A [5],relatively high activity
same,Uptake by SLC22A15 (in words),SLC22A15,significantly increased the uptake
Nc1nc(=O)n([C@@H]2CS[C@H](CO)O2)cc1F [emtricitabine],Uptake by OCT1 (in words),OCT1,to some extent
same,Uptake by OCT2 (in words),OCT2,to some extent
same,Uptake by SLC47A1 (MATE1) (in words),SLC47A1,only transported by the MATEs
same,Uptake by SLC47A2 (MATE2K) (in words),SLC47A2,only transported by the MATEs
N[C@@H](CCC(=O)O)C(=O)O [glutamic acid],Uptake by SLC38A10 compared with empty-vector-transfected cells (factor),SLC38A10 [6],1.4
same,Uptake by SLC35E4 (in words),SLC35E4,minor
